Measured values as given in ChEMBL document CHEMBL4330132, “5-Keto-3-cyano-2,4-diaminothiophenes as selective maternal embryonic leucine zipper kinase inhibitors” (Bioorg Med Chem Lett, 2019).

What was measured:
[1] = target: SRSF protein kinase 2 (Homo sapiens) (UniProt P78362); experiment: Binding affinity to wild-type human full length SRPK2 (M1 to S686 residues) expressed in bacterial expression system assessed as residual binding level at 1 uM by Kinomescan method relative to control
[2] = target: Mitogen-activated protein kinase kinase kinase 11 (Homo sapiens) (UniProt Q16584); experiment: Binding affinity to wild-type human partial length MLK3 (I77 to W399 residues) expressed in bacterial expression system assessed as residual binding level at 1 uM by Kinomescan method relative to control
[3] = target: Ribosomal protein S6 kinase alpha-2 (Homo sapiens) (UniProt Q15349); experiment: Binding affinity to wild-type human partial length C-terminal RSK3 kinase domain 2 (V403 to K700 residues) expressed in bacterial expression system assessed as residual binding level at 1 uM by Kinomescan method relative to control
[4] = target: Tyrosine-protein kinase ABL2 (Homo sapiens) (UniProt P42684); experiment: Binding affinity to wild-type human ABL2 (A248 to G542 residues) expressed in bacterial expression system assessed as residual binding level at 1 uM by Kinomescan method relative to control
[5] = target: Serine/threonine-protein kinase TNNI3K (Homo sapiens) (UniProt Q59H18); experiment: Binding affinity to wild-type human full length TNNI3K (M1 to S835 residues) expressed in bacterial expression system assessed as residual binding level at 1 uM by Kinomescan method relative to control
[6] = target: Ephrin type-B receptor 2 (Homo sapiens) (UniProt P29323); experiment: Binding affinity to wild-type human partial length EPHB2 (I597 to L902 residues) expressed in bacterial expression system assessed as residual binding level at 1 uM by Kinomescan method relative to control
[7] = tested on: Receptor-type tyrosine-protein kinase FLT3 (Homo sapiens), P36888 [D835H]; experiment: Binding affinity to human partial length FLT3 D835H mutant (V592 to Y969 residues) expressed in bacterial expression system assessed as residual binding level at 1 uM by Kinomescan method relative to control
[8] = target: Macrophage-stimulating protein receptor (Homo sapiens) (UniProt Q04912); experiment: Binding affinity to wild-type human partial length MST1R (I1057 to L1363 residues) expressed in bacterial expression system assessed as residual binding level at 1 uM by Kinomescan method relative to control
[9] = target: TGF-beta receptor type-1 (Homo sapiens) (UniProt P36897); experiment: Binding affinity to wild-type human partial length TGFBR1 (D179 to M503 residues) expressed in bacterial expression system assessed as residual binding level at 1 uM by Kinomescan method relative to control
[10] = target: Rhodopsin kinase GRK7 (Homo sapiens) (UniProt Q8WTQ7); experiment: Binding affinity to wild-type human full length GRK7 (M1 to L553 residues) expressed in mammalian expression system assessed as residual binding level at 1 uM by Kinomescan method relative to control
[11] = target: LIM domain kinase 1 (Homo sapiens) (UniProt P53667); experiment: Binding affinity to wild-type human full length LIMK1 (M1 to D647 residues) expressed in bacterial expression system assessed as residual binding level at 1 uM by Kinomescan method relative to control
[12] = tested on: Receptor-type tyrosine-protein kinase FLT3 (Homo sapiens), P36888 [R834Q]; experiment: Binding affinity to human partial length FLT3 R834Q mutant (V592 to Y969 residues) expressed in mammalian expression system assessed as residual binding level at 1 uM by Kinomescan method relative to control
[13] = target: Serine/threonine-protein kinase Nek2 (Homo sapiens) (UniProt P51955); experiment: Binding affinity to wild-type human partial length NEK2 (M1 to K309 residues) expressed in bacterial expression system assessed as residual binding level at 1 uM by Kinomescan method relative to control
[14] = target: Cyclin-dependent kinase 11B (Homo sapiens) (UniProt P21127); experiment: Binding affinity to wild-type human partial length CDC2L1 (P353 to G692 residues) expressed in bacterial expression system assessed as residual binding level at 1 uM by Kinomescan method relative to control
[15] = target: Hormonally up-regulated neu tumor-associated kinase (Homo sapiens) (UniProt P57058); experiment: Binding affinity to wild-type human partial length HUNK (A31 to K354 residues) expressed in bacterial expression system assessed as residual binding level at 1 uM by Kinomescan method relative to control
[16] = target: Dual specificity protein kinase CLK3 (Homo sapiens) (UniProt P49761); experiment: Binding affinity to wild-type human full length CLK3 (M1 to R490 residues) expressed in bacterial expression system assessed as residual binding level at 1 uM by Kinomescan method relative to control
[17] = target: Myosin-IIIa (Homo sapiens) (UniProt Q8NEV4); experiment: Binding affinity to wild-type human partial length MYO3A (M1 to K338 residues) expressed in bacterial expression system assessed as residual binding level at 1 uM by Kinomescan method relative to control
[18] = target: STE20-like serine/threonine-protein kinase (Homo sapiens) (UniProt Q9H2G2); experiment: Binding affinity to wild-type human partial length SLK (S14 to A307 residues) expressed in bacterial expression system assessed as residual binding level at 1 uM by Kinomescan method relative to control
[19] = target: Platelet-derived growth factor receptor alpha (Homo sapiens) (UniProt P16234); experiment: Binding affinity to wild-type human partial length PDGFRA (V575 to D1002 residues) expressed in mammalian expression system assessed as residual binding level at 1 uM by Kinomescan method relative to control
[20] = tested on: Tyrosine-protein kinase ABL1 (Homo sapiens), P00519 [F317L]; experiment: Binding affinity to human phosphorylated ABL1 F317L mutant (S229 to K512 residues) expressed in mammalian expression system assessed as residual binding level at 1 uM by Kinomescan method relative to control
[21] = target: Serine/threonine-protein kinase 4 (Homo sapiens) (UniProt Q13043); experiment: Binding affinity to wild-type human full length MST1 (M1 to F487 residues) expressed in bacterial expression system assessed as residual binding level at 1 uM by Kinomescan method relative to control
[22] = target: Mitogen-activated protein kinase kinase kinase kinase 2 (Homo sapiens) (UniProt Q12851); experiment: Binding affinity to wild-type human partial length MAP4K2 (M1 to G318 residues) expressed in mammalian expression system assessed as residual binding level at 1 uM by Kinomescan method relative to control
[23] = target: Serine/threonine-protein kinase 16 (Homo sapiens) (UniProt O75716); experiment: Binding affinity to wild-type human partial length STK16 (G11 to I305 residues) expressed in bacterial expression system assessed as residual binding level at 1 uM by Kinomescan method relative to control
[24] = target: Ribosomal protein S6 kinase alpha-6 (Homo sapiens) (UniProt Q9UK32); experiment: Binding affinity to wild-type human partial length C-terminal RSK4 kinase domain 2 (I401 to Y711 residues) expressed in bacterial expression system assessed as residual binding level at 1 uM by Kinomescan method relative to control

Sequence of Ribosomal protein S6 kinase alpha-2 (Homo sapiens) (Q15349 whole entry, the tested form may be a part): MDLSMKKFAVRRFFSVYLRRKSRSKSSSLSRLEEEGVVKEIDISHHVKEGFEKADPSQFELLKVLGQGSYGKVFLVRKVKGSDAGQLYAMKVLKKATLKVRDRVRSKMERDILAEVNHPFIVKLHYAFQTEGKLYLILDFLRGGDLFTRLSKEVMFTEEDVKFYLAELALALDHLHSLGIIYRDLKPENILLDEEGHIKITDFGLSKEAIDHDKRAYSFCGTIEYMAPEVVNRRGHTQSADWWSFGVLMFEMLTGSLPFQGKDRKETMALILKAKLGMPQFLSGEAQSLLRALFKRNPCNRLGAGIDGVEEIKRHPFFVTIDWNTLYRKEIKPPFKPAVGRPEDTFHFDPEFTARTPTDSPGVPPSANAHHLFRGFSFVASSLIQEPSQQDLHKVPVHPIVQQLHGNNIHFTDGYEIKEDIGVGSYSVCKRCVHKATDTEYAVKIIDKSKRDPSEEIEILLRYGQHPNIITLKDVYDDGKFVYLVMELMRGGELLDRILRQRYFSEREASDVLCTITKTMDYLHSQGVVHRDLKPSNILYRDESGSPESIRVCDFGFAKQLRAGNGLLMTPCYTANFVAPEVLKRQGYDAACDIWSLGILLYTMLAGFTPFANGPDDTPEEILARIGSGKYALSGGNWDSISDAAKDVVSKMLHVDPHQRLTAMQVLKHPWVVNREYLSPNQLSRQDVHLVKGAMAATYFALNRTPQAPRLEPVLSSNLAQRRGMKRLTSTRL
Sequence of Tyrosine-protein kinase ABL1 (Homo sapiens), P00519 [F317L] (P00519 whole entry F317L, the tested form may be a part): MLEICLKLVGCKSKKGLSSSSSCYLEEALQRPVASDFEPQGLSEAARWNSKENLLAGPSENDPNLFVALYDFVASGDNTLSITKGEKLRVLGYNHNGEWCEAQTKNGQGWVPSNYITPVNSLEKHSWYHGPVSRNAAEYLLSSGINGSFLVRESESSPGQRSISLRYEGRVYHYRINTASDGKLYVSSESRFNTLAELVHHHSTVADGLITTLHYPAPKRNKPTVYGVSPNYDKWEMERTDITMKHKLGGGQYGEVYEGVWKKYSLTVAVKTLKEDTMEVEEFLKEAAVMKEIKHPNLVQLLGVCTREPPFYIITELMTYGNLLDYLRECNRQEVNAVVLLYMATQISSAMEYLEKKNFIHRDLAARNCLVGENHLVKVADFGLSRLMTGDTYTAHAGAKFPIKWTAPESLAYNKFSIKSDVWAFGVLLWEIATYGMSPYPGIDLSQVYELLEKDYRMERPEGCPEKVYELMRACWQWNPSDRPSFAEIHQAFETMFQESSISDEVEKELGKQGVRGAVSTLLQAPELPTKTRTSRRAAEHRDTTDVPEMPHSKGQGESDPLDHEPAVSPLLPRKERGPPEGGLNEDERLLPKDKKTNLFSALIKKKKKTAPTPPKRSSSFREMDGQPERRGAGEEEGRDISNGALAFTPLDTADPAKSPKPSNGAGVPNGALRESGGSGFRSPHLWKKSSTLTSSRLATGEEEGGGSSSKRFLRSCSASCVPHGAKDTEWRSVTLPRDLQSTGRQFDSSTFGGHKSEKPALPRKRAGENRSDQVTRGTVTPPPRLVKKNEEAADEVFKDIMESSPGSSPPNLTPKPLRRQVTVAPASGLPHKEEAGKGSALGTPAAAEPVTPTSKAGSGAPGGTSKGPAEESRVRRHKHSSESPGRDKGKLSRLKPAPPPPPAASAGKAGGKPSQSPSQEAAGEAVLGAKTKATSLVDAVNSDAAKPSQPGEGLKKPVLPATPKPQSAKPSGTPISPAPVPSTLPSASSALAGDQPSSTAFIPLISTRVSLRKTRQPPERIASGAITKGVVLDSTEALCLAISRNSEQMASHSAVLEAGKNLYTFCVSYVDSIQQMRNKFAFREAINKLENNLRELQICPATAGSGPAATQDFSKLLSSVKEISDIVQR
Sequence of Serine/threonine-protein kinase Nek2 (Homo sapiens) (P51955 whole entry, the tested form may be a part): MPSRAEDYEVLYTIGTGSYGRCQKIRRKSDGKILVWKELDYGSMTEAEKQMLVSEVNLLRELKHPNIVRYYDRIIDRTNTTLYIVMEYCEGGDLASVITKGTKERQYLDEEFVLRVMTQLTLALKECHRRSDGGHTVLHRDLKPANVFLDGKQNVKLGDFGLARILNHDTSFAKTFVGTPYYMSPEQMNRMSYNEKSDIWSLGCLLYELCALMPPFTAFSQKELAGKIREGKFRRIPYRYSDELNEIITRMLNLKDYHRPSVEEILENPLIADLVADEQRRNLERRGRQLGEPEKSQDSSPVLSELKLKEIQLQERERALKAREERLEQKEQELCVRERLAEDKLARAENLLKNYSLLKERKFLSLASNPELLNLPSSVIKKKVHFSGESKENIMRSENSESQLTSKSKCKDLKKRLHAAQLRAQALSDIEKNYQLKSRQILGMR
Sequence of Rhodopsin kinase GRK7 (Homo sapiens) (Q8WTQ7 whole entry, the tested form may be a part): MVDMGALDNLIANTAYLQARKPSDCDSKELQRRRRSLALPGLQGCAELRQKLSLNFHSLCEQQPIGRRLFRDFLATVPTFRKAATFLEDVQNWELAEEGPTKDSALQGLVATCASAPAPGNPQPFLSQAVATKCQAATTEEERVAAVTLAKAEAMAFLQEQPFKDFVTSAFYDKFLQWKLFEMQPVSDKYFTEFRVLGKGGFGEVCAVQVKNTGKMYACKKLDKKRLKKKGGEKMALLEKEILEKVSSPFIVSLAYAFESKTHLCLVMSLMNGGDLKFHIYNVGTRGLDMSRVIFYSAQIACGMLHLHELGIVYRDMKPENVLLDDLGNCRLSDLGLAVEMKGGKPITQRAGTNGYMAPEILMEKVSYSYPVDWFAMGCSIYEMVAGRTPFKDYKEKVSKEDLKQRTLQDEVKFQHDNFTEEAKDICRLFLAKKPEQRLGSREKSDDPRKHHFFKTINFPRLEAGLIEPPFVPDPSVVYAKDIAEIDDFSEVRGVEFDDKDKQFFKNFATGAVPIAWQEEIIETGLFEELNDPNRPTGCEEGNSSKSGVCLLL
Sequence of Serine/threonine-protein kinase TNNI3K (Homo sapiens) (Q59H18 whole entry, the tested form may be a part): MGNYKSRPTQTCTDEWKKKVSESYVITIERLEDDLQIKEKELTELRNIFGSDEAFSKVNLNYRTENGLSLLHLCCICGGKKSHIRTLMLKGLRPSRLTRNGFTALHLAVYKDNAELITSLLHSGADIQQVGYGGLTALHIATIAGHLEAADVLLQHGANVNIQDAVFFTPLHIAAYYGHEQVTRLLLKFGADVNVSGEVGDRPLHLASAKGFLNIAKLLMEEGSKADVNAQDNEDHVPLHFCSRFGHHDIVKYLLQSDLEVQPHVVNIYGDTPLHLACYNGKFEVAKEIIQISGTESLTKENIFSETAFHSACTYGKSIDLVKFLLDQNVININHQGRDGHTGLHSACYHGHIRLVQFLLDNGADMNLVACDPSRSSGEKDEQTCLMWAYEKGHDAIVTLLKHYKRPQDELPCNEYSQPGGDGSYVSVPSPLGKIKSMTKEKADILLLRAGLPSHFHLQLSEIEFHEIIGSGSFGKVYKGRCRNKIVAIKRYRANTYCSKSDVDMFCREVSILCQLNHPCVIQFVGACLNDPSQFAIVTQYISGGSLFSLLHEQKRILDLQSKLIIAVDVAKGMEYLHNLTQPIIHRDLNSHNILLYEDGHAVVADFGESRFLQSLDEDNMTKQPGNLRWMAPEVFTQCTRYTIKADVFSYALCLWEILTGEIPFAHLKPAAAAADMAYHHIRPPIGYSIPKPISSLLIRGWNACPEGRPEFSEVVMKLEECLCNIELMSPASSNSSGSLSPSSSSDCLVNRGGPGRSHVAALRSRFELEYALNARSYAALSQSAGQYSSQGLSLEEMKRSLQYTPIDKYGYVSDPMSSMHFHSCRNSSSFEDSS
Sequence of Serine/threonine-protein kinase 16 (Homo sapiens) (O75716 whole entry, the tested form may be a part): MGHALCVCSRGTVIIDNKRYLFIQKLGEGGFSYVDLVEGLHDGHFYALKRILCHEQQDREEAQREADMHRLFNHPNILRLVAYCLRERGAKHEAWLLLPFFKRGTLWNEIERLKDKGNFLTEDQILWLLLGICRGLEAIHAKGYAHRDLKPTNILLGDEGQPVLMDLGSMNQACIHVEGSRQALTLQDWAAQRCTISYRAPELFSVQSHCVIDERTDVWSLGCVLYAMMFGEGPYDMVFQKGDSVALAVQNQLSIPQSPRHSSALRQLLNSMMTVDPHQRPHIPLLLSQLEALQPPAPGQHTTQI
Sequence of Cyclin-dependent kinase 11B (Homo sapiens) (P21127 whole entry, the tested form may be a part): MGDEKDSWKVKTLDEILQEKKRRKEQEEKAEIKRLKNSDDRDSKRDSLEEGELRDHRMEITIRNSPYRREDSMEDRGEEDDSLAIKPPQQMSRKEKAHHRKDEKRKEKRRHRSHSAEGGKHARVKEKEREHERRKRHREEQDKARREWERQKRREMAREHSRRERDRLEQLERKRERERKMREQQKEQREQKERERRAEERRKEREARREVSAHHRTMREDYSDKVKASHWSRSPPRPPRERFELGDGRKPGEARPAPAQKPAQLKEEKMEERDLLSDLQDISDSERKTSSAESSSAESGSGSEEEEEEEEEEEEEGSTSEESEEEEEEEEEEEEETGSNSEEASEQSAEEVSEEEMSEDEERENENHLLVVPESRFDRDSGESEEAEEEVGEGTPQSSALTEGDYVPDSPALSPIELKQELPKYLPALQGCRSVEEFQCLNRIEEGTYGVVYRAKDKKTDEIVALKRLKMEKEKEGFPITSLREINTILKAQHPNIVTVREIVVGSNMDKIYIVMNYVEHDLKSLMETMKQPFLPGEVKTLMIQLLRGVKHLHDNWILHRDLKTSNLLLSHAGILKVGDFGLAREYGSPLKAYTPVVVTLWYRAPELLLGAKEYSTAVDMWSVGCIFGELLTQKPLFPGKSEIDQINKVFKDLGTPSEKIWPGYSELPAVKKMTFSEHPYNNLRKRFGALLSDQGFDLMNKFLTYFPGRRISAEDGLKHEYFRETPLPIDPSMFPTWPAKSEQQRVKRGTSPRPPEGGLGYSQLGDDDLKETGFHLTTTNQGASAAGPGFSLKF

`CC(C)Nc1sc(C(=O)c2ccc(Cl)s2)c(N)c1C#N` was tested. Which Activity [1] did it give?
Its Activity is 93%.

And the Activity [2]?
The Activity was 100%.

And the Activity [3]?
Its Activity is 98%.

What about the Activity [4] of the same molecule?
Its Activity is 95%.

And the Activity [5]?
Its Activity is 75%.

And the Activity [6]?
Its Activity is 79%.

What about the Activity [7] of the same molecule?
The Activity was 60%.

And the Activity [8]?
The Activity was 98%.

And the Activity [9]?
Its Activity is 100%.

And the Activity [10]?
The Activity was 95%.

What about the Activity [11] of the same molecule?
Its Activity is 55%.

And the Activity [12]?
Its Activity is 99%.

And the Activity [13]?
The Activity was 85%.

What about the Activity [14] of the same molecule?
Its Activity is 100%.

And the Activity [15]?
Its Activity is 71%.

What about the Activity [16] of the same molecule?
Its Activity is 74%.

What about the Activity [17] of the same molecule?
The Activity was 75%.

And the Activity [18]?
The Activity was 96%.

What about the Activity [19] of the same molecule?
Its Activity is 82%.

And the Activity [20]?
The Activity was 100%.

And the Activity [21]?
The Activity was 100%.

What about the Activity [22] of the same molecule?
The Activity was 100%.

What about the Activity [23] of the same molecule?
Its Activity is 85%.

And the Activity [24]?
The Activity was 90%.
